Measurements taken from PMC12705613 (Frontiers in Microbiology, 2025).

Key:
human intestinal flora = tested on: human intestinal flora; parameters: method as in Zimmermann et al., 2019; conditions: in vitro; fecal samples from healthy individuals; ref Zimmermann et al., 2019; cited from earlier work
[1] = after administration; ref Zhou et al., 2009; Mukai et al., 2015; cited from earlier work
gut microbiota from SHRs = test: Anaerobic incubation of drug with fecal gut microbiota from SHRs; type: in vitro ADME, rat; conditions: for Qualitative analysis: metabolism to other compounds: SHR gut microbiota in vitro, UHPLC-Q-TOF-MS; for Remaining content: SHR gut microbiota, 40 μM drug, anaerobic 37 °C, mGAM
Procedure: (§1) Fresh fecal samples from WKYs and SHRs were collected and immediately transferred to an anaerobic chamber (90% N₂, 5% CO₂, 5% H₂). Fecal suspensions were prepared by homogenizing 1 g of feces in 15 mL of sterile phosphate-buffered saline containing 0.1% L-cysteine. […] Bacteria-free controls contained equivalent drug volumes consistently. […] Drug remaining content and non-target metabolites screen were detected by ultra-high performance liquid chromatography coupled with triple quadrupole mass spectrometry (UHPLC-TQ-MS) and ultra-high performance liquid chromatography with quadrupole time-of-flight mass spectrometry (UHPLC-Q-TOF-MS), respectively. The sample preparation process can be found in the Supplementary material. For UHPLC-Q-TOF-MS analysis, the MS parameters and IDA criteria can be seen in Supplementary Table S1.
(§2) The sample processing procedures were tailored to align with the experimental objectives. For qualitative metabolite profiling, supernatants from the co-incubation of bacteria and drugs were collected at designated time points, filtered using a 0.22 μm membrane, lyophilized, and reconstituted in 200 μL of methanol. After vortexing and centrifuging for 10 minutes at 4°C and 12,000 rpm, the supernatant was transferred to an LC vial, and 5 μL aliquot was injected into the UHPLC-Q-TOF-MS/MS. For quantitative analysis, 100 μL aliquots were taken from the co-incubation supernatant and spiked with 1,000 μL of methanol containing 500 ng/mL of irbesartan. Following one minute of vortexing and centrifugation at 12,000 rpm for 10 minutes, the resulting supernatant was transferred to an LC vial, and a 5μL aliquot was injected into the UHPLC-TQ-MS/MS.

gut microbiota from WKYs = test: Anaerobic incubation of drug with fecal gut microbiota from WKYs; type: in vitro ADME, rat; conditions: for Qualitative analysis: metabolism to other compounds: WKY gut microbiota in vitro, UHPLC-Q-TOF-MS; for Remaining content: WKY gut microbiota, 40 μM drug, anaerobic 37 °C, mGAM
Procedure: as §1, §2

| Structure (SMILES) | Degradation on exposure to fecal samples (human intestinal flora) | Excreted in feces [1] | Excreted in urine [1] | Qualitative analysis: metabolism to other compounds (gut microbiota from SHRs) | Remaining content (gut microbiota from SHRs; 0 h) | Remaining content (gut microbiota from SHRs; 12 h) | Remaining content (gut microbiota from SHRs; 24 h) | Remaining content (gut microbiota from SHRs; 48 h) | Qualitative analysis: metabolism to other compounds (gut microbiota from WKYs) | Remaining content (gut microbiota from WKYs; 0 h) | Remaining content (gut microbiota from WKYs; 12 h) | Remaining content (gut microbiota from WKYs; 24 h) | Remaining content (gut microbiota from WKYs; 48 h) |
| --- | --- | --- | --- | --- | --- | --- | --- | --- | --- | --- | --- | --- | --- |
| CCCCc1nc(Cl)c(CO)n1Cc1ccc(-c2ccccc2-c2nn[nH]n2)cc1 [Losartan, Losartan potassium] | approximately 20% | ~60% | approximately 35% | neither losartan nor E-3174 was metabolized to other compounds | 37.62 ± 1.03 µM | 38.41 ± 2.14 µM | 33.51 ± 2.35 µM | 32.98 ± 2.19 µM | neither losartan nor E-3174 was metabolized to other compounds | 37.78 ± 2.05 µM | 36.96 ± 2.06 µM | 36.03 ± 0.78 µM | 33.85 ± 0.96 µM |
| CCCCc1nc(Cl)c(C(=O)O)n1Cc1ccc(-c2ccccc2-c2nnn[nH]2)cc1 [E-3174] |  |  |  | neither losartan nor E-3174 was metabolized to other compounds | 38.21 ± 0.11 µM | 39.55 ± 2.13 µM | 35.95 ± 1.41 µM | 27.07 ± 6.32 µM | neither losartan nor E-3174 was metabolized to other compounds | 37.45 ± 1.33 µM | 41.40 ± 1.42 µM | 39.27 ± 1.11 µM | 31.95 ± 1.41 µM |
